Data as given in the NIST ThermoML archive (doi:10.1021/je034203p).
Numbers after ± are expanded uncertainties.

Experiment: xn = mol fraction of the nth substance listed
Settings: 298.15 K, 101.3 kPa, Liquid; for viscosity: Capillary tube (Ostwald / Ubbelohde) method

CCCO [propan-1-ol] + ClC(Cl)=C(Cl)Cl
x2 = 0
Settings | mass density [kg/m3] | viscosity [mPa·s]
– | 800 ± 0.7 | 1.954 ± 0.017

CCOC(C)=O [ethyl acetate] + ClC(Cl)=C(Cl)Cl
x2 = 0
Settings | mass density [kg/m3] | viscosity [mPa·s]
– | 894 ± 0.6 | 0.4274 ± 0.007

CCC(C)O (stereo not given) [butan-2-ol] + ClC(Cl)=C(Cl)Cl
x2 = 0
Settings | mass density [kg/m3] | viscosity [mPa·s]
– | 804.8 ± 0.7 | 3.103 ± 0.028

ClC=C(Cl)Cl [trichloroethene] + CC(C)O
Settings | mass density [kg/m3] | viscosity [mPa·s]
x1 = 0.0866 | 850.4 ± 0.6 | 1.764 ± 0.016
x1 = 0.1754 | 916.6 ± 0.6 | 1.514 ± 0.014
x1 = 0.2667 | 982.1 ± 0.6 | 1.306 ± 0.012
x1 = 0.3613 | 1047.6 ± 0.6 | 1.119 ± 0.011
x1 = 0.4594 | 1113.9 ± 0.8 | 0.9582 ± 0.0098
x1 = 0.5602 | 1180.9 ± 0.9 | 0.8218 ± 0.009
x1 = 0.665 | 1249.2 ± 0.9 | 0.7173 ± 0.0084
x1 = 0.7724 | 1316.8 ± 1.1 | 0.6451 ± 0.008
x1 = 0.8846 | 1385.9 ± 1.2 | 0.6004 ± 0.0078
x1 = 1 | 1455.7 ± 1.3 | 0.551 ± 0.0075

ClC(Cl)(Cl)Cl [tetrachloromethane] + ClC(Cl)=C(Cl)Cl
x2 = 0
Settings | mass density [kg/m3] | viscosity [mPa·s]
– | 1586.1 ± 1.6 | 0.9096 ± 0.0095

CCOC(C)=O [ethyl acetate] + ClC=C(Cl)Cl
x2 = 0
Settings | mass density [kg/m3] | viscosity [mPa·s]
– | 894 ± 0.6 | 0.4274 ± 0.007

ClC(Cl)=C(Cl)Cl [tetrachloroethene] + CO
Settings | mass density [kg/m3] | viscosity [mPa·s]
x1 = 0.042 | 868.7 ± 0.6 | 0.5644 ± 0.0076
x1 = 0.0897 | 950.1 ± 0.6 | 0.5806 ± 0.0077
x1 = 0.1446 | 1030.1 ± 0.6 | 0.5981 ± 0.0078
x1 = 0.2082 | 1112 ± 0.7 | 0.6209 ± 0.0079
x1 = 0.2828 | 1192.6 ± 0.9 | 0.6449 ± 0.008
x1 = 0.372 | 1274.4 ± 1 | 0.6751 ± 0.0081
x1 = 0.4795 | 1355.9 ± 1.2 | 0.7069 ± 0.0083
x1 = 0.6123 | 1439.7 ± 1.3 | 0.7412 ± 0.0085
x1 = 0.7804 | 1524.3 ± 1.4 | 0.7875 ± 0.0088
x1 = 1 | 1610.2 ± 1.6 | 0.8474 ± 0.0091

ClC=C(Cl)Cl [trichloroethene] + CO
Settings | mass density [kg/m3] | viscosity [mPa·s]
x1 = 0.0477 | 853.7 ± 0.6 | 0.5565 ± 0.0076
x1 = 0.1014 | 920.3 ± 0.6 | 0.5667 ± 0.0076
x1 = 0.1616 | 985.5 ± 0.6 | 0.5738 ± 0.0076
x1 = 0.2308 | 1052.1 ± 0.6 | 0.5833 ± 0.0077
x1 = 0.3105 | 1117.9 ± 0.7 | 0.595 ± 0.0077
x1 = 0.4033 | 1184.5 ± 0.8 | 0.6017 ± 0.0078
x1 = 0.5125 | 1251.2 ± 1 | 0.6021 ± 0.0078
x1 = 0.643 | 1318.4 ± 1.1 | 0.5908 ± 0.0077
x1 = 0.8021 | 1386.3 ± 1.2 | 0.575 ± 0.0076
x1 = 1 | 1455.7 ± 1.3 | 0.551 ± 0.0075

c1ccccc1 [benzene] + ClC=C(Cl)Cl
x2 = 0
Settings | mass density [kg/m3] | viscosity [mPa·s]
– | 869.7 ± 0.6 | 0.608 ± 0.0078

CCO [ethanol] + ClC=C(Cl)Cl
x2 = 0
Settings | mass density [kg/m3] | viscosity [mPa·s]
– | 787.4 ± 0.7 | 1.112 ± 0.011

COC(C)=O [methyl ethanoate] + ClC=C(Cl)Cl
x2 = 0
Settings | mass density [kg/m3] | viscosity [mPa·s]
– | 923.9 ± 0.6 | 0.3711 ± 0.0068

ClC(Cl)=C(Cl)Cl [tetrachloroethene] + CCCCO
Settings | mass density [kg/m3] | viscosity [mPa·s]
x1 = 0.0901 | 885.2 ± 0.6 | 2.255 ± 0.02
x1 = 0.1823 | 964.3 ± 0.6 | 1.986 ± 0.018
x1 = 0.2766 | 1043.5 ± 0.6 | 1.717 ± 0.015
x1 = 0.3727 | 1122.5 ± 0.8 | 1.496 ± 0.014
x1 = 0.4713 | 1201.7 ± 0.9 | 1.314 ± 0.012
x1 = 0.5727 | 1283 ± 1 | 1.158 ± 0.011
x1 = 0.6759 | 1364.2 ± 1.2 | 1.045 ± 0.01
x1 = 0.7809 | 1444.6 ± 1.3 | 0.9519 ± 0.0098
x1 = 0.8891 | 1526 ± 1.5 | 0.8894 ± 0.0094
x1 = 1 | 1610.2 ± 1.6 | 0.8474 ± 0.0091

CC(C)O [propan-2-ol] + ClC=C(Cl)Cl
x2 = 0
Settings | mass density [kg/m3] | viscosity [mPa·s]
– | 784.3 ± 0.7 | 2.044 ± 0.018

CCCCO [butan-1-ol] + ClC=C(Cl)Cl
x2 = 0
Settings | mass density [kg/m3] | viscosity [mPa·s]
– | 806.3 ± 0.7 | 2.538 ± 0.023

CCCCO [butan-1-ol] + ClC(Cl)=C(Cl)Cl
x2 = 0
Settings | mass density [kg/m3] | viscosity [mPa·s]
– | 806.3 ± 0.7 | 2.538 ± 0.023

CCC(C)=O [butanone] + ClC=C(Cl)Cl
x2 = 0
Settings | mass density [kg/m3] | viscosity [mPa·s]
– | 797.4 ± 0.7 | 0.4011 ± 0.0069

Cc1ccccc1 [toluene] + ClC(Cl)=C(Cl)Cl
x2 = 0
Settings | mass density [kg/m3] | viscosity [mPa·s]
– | 860.5 ± 0.6 | 0.5641 ± 0.0076

ClC(Cl)=C(Cl)Cl [tetrachloroethene] + CCC(C)O
Settings | mass density [kg/m3] | viscosity [mPa·s]
x1 = 0.0903 | 883.6 ± 0.6 | 2.66 ± 0.024
x1 = 0.1825 | 962.6 ± 0.6 | 2.28 ± 0.02
x1 = 0.2769 | 1042.5 ± 0.6 | 1.944 ± 0.017
x1 = 0.3734 | 1121.1 ± 0.8 | 1.667 ± 0.015
x1 = 0.4718 | 1201.2 ± 0.9 | 1.453 ± 0.013
x1 = 0.5733 | 1281.9 ± 1 | 1.262 ± 0.012
x1 = 0.6759 | 1362.6 ± 1.2 | 1.119 ± 0.011
x1 = 0.7817 | 1444.3 ± 1.3 | 1.005 ± 0.01
x1 = 0.8891 | 1525.8 ± 1.5 | 0.9029 ± 0.0094
x1 = 1 | 1610.2 ± 1.6 | 0.8474 ± 0.0091

CO [methanol] + ClC=C(Cl)Cl
x2 = 0
Settings | mass density [kg/m3] | viscosity [mPa·s]
– | 788.1 ± 0.7 | 0.5482 ± 0.0075

ClC=C(Cl)Cl [trichloroethene] + COC(C)=O
Settings | mass density [kg/m3] | viscosity [mPa·s]
x1 = 0.09 | 972.6 ± 0.5 | 0.4128 ± 0.007
x1 = 0.182 | 1022.8 ± 0.6 | 0.4443 ± 0.0071
x1 = 0.2755 | 1074.4 ± 0.6 | 0.4699 ± 0.0072
x1 = 0.372 | 1125.3 ± 0.7 | 0.4925 ± 0.0073
x1 = 0.4703 | 1177.5 ± 0.8 | 0.5147 ± 0.0074
x1 = 0.5713 | 1230.9 ± 0.9 | 0.5325 ± 0.0074
x1 = 0.6748 | 1283.9 ± 1 | 0.5447 ± 0.0075
x1 = 0.7806 | 1341 ± 1.1 | 0.555 ± 0.0076
x1 = 0.8886 | 1397.9 ± 1.2 | 0.5598 ± 0.0076
x1 = 1 | 1455.7 ± 1.3 | 0.551 ± 0.0075

ClC=C(Cl)Cl [trichloroethene] + CC(C)=O
Settings | mass density [kg/m3] | viscosity [mPa·s]
x1 = 0.084 | 845.9 ± 0.6 | 0.3412 ± 0.0067
x1 = 0.1712 | 912.3 ± 0.6 | 0.3688 ± 0.0068
x1 = 0.2608 | 978.8 ± 0.6 | 0.3958 ± 0.0069
x1 = 0.3544 | 1045 ± 0.6 | 0.4244 ± 0.007
x1 = 0.4519 | 1111.6 ± 0.8 | 0.4501 ± 0.0071
x1 = 0.5528 | 1179 ± 0.8 | 0.4723 ± 0.0072
x1 = 0.6582 | 1246.4 ± 0.9 | 0.4906 ± 0.0073
x1 = 0.7671 | 1315.6 ± 1.1 | 0.5107 ± 0.0074
x1 = 0.8815 | 1385.7 ± 1.2 | 0.5309 ± 0.0074
x1 = 1 | 1455.7 ± 1.3 | 0.551 ± 0.0075

CC(C)O [propan-2-ol] + ClC(Cl)=C(Cl)Cl
x2 = 0
Settings | mass density [kg/m3] | viscosity [mPa·s]
– | 784.3 ± 0.7 | 2.044 ± 0.018

ClC(Cl)=C(Cl)Cl [tetrachloroethene] + CC(C)=O
Settings | mass density [kg/m3] | viscosity [mPa·s]
x1 = 0.0742 | 862.2 ± 0.6 | 0.3537 ± 0.0067
x1 = 0.1529 | 943.8 ± 0.6 | 0.398 ± 0.0069
x1 = 0.2362 | 1025.5 ± 0.6 | 0.4442 ± 0.0071
x1 = 0.3247 | 1107.7 ± 0.7 | 0.4942 ± 0.0073
x1 = 0.4192 | 1189.6 ± 0.9 | 0.5459 ± 0.0075
x1 = 0.5201 | 1272.3 ± 1 | 0.6021 ± 0.0078
x1 = 0.6279 | 1356.2 ± 1.2 | 0.6581 ± 0.0081
x1 = 0.7428 | 1440.3 ± 1.3 | 0.7167 ± 0.0084
x1 = 0.8671 | 1524.6 ± 1.4 | 0.7802 ± 0.0087
x1 = 1 | 1610.2 ± 1.6 | 0.8474 ± 0.0091
